In patent US20240391882A1 (Mirati Therapeutics, Inc., priority 2023, published 2024):

Legend:
Format in all cases: cell-based
[1] = tested on: T47D (PI3Kα H1047R mutant) cells; assay: Cell viability (CellTiter-Glo 2.0) in T47D cells; details: Homo sapiens, T47D, 72 h, approximately 72 hours
Description: (§1) This Example illustrates that representative compounds of the invention decrease the viability of cells.
(§2) The ability of a compound of Formula (I) to decrease the viability of cells was measured using CellTiter-Glo 2.0 (CTG) Luminescent Cell Viability Assay (#G9241) obtained from Promega (Madison, WI).
(§3) To prepare assay plates for viability assays, cells were trypsinized, resuspended in fresh media, and viable cells were counted utilizing trypan blue exclusion. T47D, SKBR3, or MKN1 cells were seeded at 1000 cells in 30 μl per well in a solid white flat bottom 384 cell culture plate (Perkin Elmer #6007680) and incubated at 37° C. overnight.
(§4) Assay day 1, cells were dosed using an Echo Liquid Handler (Beckman Coulter) with compounds at a 10 μm starting concentration and serially diluted (1:4) for a total of 10 concentrations. Cells were incubated for approximately 72 hours with the compounds (solubilized in DMSO) at 37° C. After 72 hours of treatment, cell plates were equilibrated to room temperature before adding 15 μl of CTG to each well, plates were then covered in aluminum foil to protect from light, incubated at room temperature for 30 minutes on a microtiter plate shaker, and luminescence readings were collected using a CLARIOstar microplate reader (BMG Labtech, Germany). Percent of vehicle control values were plotted as log(inhibitor) vs. response—Variable slope (four parameters) for curve fitting and IC50 values were determined using XLfit.

[2] = tested on: SKBR3 (PI3Kα wild type) cells; assay: Cell viability (CellTiter-Glo 2.0) in SKBR3 cells; details: Homo sapiens, SK-BR-3; SKBR3 (PI3Kα wild type) cells, approximately 72 hours, CellTiter-Glo 2.0; read-out: SKBR3 (WT) Viability IC50
Description: as §1, §2, §3, §4

[3] = tested on: pAKT in T47D (PI3Kα H1047R mutant) cells; assay: Inhibition of pAKT (alphaLISA Surefire Ultra AKT 1/2/3 pS473) in T47D cells; details: Homo sapiens; T47D (PI3Kα H1047R mutant) cells, 24 hr compound incubation, alphaLISA pS473; read-out: T47D (H1047R) pAKT 24 hr (IC50)
Description: The ability of a compound of Formula (I) to inhibit the formation of pAKT was measured using alphaLISA Surefire Ultra AKT 1/2/3 (pS473) Assay Kit (#ALSU-PAKT-B50K) was obtained from Perkin Elmer (Waltham, MA).
To prepare assay plates for pAKT alphaLISA assays, cells were trypsinized, resuspended in fresh media, and viable cells were counted utilizing trypan blue exclusion. Prior to seeding, cells were washed with PBS and resuspended in HBSS (Gibco, #14025092). T47D (12,000/w), SKBR3 (12,000/w), or MKN1 (24,000/w) cells were seeded at 12 μl per well in a solid white flat bottom 384 cell culture plate (Perkin Elmer #6007680).
Immediately after seeding, cells were dosed using an Echo Liquid Handler (Beckman Coulter) with compounds at a 10.4 μm starting concentration and serially diluted (1:4) for a total of 10 concentrations. 14 vehicle (DMSO) and 14 positive control (Alpelisib @3.125 μm) wells were included on each assay plate. Cells were incubated with the compounds (solubilized in DMSO) for approximately 24 hours at 37° C. After 24 hours of treatment, cells were lysed with 3 μl of the 5× lysis buffer (provided and incubated at room temperature for 15 min on a microtiter plate shaker). Once cells were sufficiently lysed, 7.5 μl of the acceptor bead mix (made using the manufacturers recommended dilutions) was added to each well and left on the microtiter plate shaker for 1 min prior to incubating plates at room temperature for 1 hour, in the absence of light. After 1 hour of incubation with the acceptor bead mix, 7.5 μl of the donor bead mix (made using the manufacturers recommended dilutions) was added to each well and left on the microtiter plate shaker for 1 min prior to incubating plates at room temperature overnight in the absence of light. Plates were then imaged the following day using a CLARIOstar microplate reader (BMG Labtech, Germany).
Percent of control values were calculated by subtracting the average signal from the positive control (alpelisib) treated wells from all treated wells (including DMSO control wells) and then divided by the average signal from the vehicle DMSO treated control wells. Percent of vehicle control values were plotted as log(inhibitor) vs. response—Variable slope (four parameters) for curve fitting and IC50 values were determined using XLfit.

Row | Structure (SMILES) | IC50 [1] [µM] | IC50 [2] [µM] | IC50 [3] [µM]
1 | Cc1cc([C@@H](C)Nc2ccc(Cl)nc2C(=O)O)c2nc(N3CC4CC3C(F)(F)C4)c(C#N)nc2c1 (single isomer, unassigned) [Example 10] | 0.0716 | > 10 | –
2 | Cc1cc([C@@H](C)Nc2ccc(Cl)nc2C(=O)O)c2nc(N3CC4CC3C(F)(F)C4)c(C#N)nc2c1 (single isomer, unassigned) [Example 11] | 0.064 | > 10 | –
3 | CO[C@H]1CCN(c2nc3c([C@@H](C)Nc4ccccc4C(=O)O)cc(C)cc3nc2C#N)C1 (single isomer, unassigned) [Example 72A] | 0.298 | > 10 | –
4 | CO[C@@H]1CCN(c2nc3c([C@@H](C)Nc4ccccc4C(=O)O)cc(C)cc3nc2C#N)C1 (single isomer, unassigned) [Example 72B] | 0.0963 | > 10 | –
5 | CO[C@@H]1CCN(c2nc3c([C@@H](C)Nc4ccc(Cl)nc4C(=O)O)cc(C)cc3nc2C#N)C1 (single isomer, unassigned) [Example 110A] | 0.298 | > 10 | –
6 | CO[C@H]1CCN(c2nc3c([C@@H](C)Nc4ccc(Cl)nc4C(=O)O)cc(C)cc3nc2C#N)C1 (single isomer, unassigned) [Example 110B] | 0.0963 | > 10 | –
7 | Cc1cc([C@@H](C)Nc2ccc(Cl)nc2C(=O)O)c2nc(N3CCCC(F)(F)C3)c(C#N)nc2c1 [Example 12, (R)-6-chloro-3-((1-(2-cyano-3-(3,3-difluoropiperidin-1-yl)-7-methylquinoxalin-5-yl)ethyl)amino)picolinic acid] | 0.16 | > 10 | –
8 | Cc1cc([C@@H](C)Nc2ccc(Cl)nc2C(=O)O)c2nc(NCC3(C(F)(F)F)CC3)c(C#N)nc2c1 [Example 15, (R)-6-chloro-3-((1-(2-cyano-7-methyl-3-(((1-(trifluoromethyl)cyclopropyl)methyl)amino)quinoxalin-5-yl)ethyl)amino)picolinic acid] | 0.12 | > 10 | –
9 | Cc1cc([C@@H](C)Nc2scnc2C(=O)O)c2nc(N3CCC(F)(F)CC3)c(C#N)nc2c1 [Example 39, (R)-5-((1-(2-cyano-3-(4,4-difluoropiperidin-1-yl)-7-methylquinoxalin-5-yl)ethyl)amino)thiazole-4-carboxylic acid] | 2.68 | 6.23 | –
10 | Cc1cc([C@@H](C)Nc2ccc(Cl)nc2C(=O)O)c2nc(N3CCC(F)(F)CC3)c(C3CC3)nc2c1 [Example 48, (R)-6-chloro-3-((1-(2-cyclopropyl-3-(4,4-difluoropiperidin-1-yl)-7-methylquinoxalin-5-yl)ethyl)amino)picolinic acid] | 0.0953 | > 10 | –
11 | Cc1cc([C@@H](C)Nc2ccccc2C(=O)O)c2nc(N3CC4(COC4)C3)c(C#N)nc2c1 [Example 59, (R)-2-((1-(2-cyano-7-methyl-3-(2-oxa-6-azaspiro[3.3]heptan-6-yl)quinoxalin-5-yl)ethyl)amino)benzoic acid] | 0.14 | > 10 | –
12 | Cc1cc([C@@H](C)Nc2ccc(Cl)nc2C(=O)O)c2nc(N3CC4(COC4)C3)c(C#N)nc2c1 [Example 60, (R)-6-chloro-3-((1-(2-cyano-7-methyl-3-(2-oxa-6-azaspiro[3.3]heptan-6-yl)quinoxalin-5-yl)ethyl)amino)picolinic acid] | 0.0211 | > 10 | –
13 | Cc1cc([C@@H](C)Nc2ccccc2C(=O)O)c2nc(N3CCC(C)(C(F)(F)F)CC3)c(C#N)nc2c1 [Example 65, (R)-2-((1-(2-cyano-7-methyl-3-(4-methyl-4-(trifluoromethyl)piperidin-1-yl)quinoxalin-5-yl)ethyl)amino)benzoic acid] | 0.456 | > 10 | –
14 | Cc1cc([C@@H](C)Nc2ccc(Cl)nc2C(=O)O)c2nc(N3CCC(C)(C(F)(F)F)CC3)c(C#N)nc2c1 [Example 66, (R)-6-chloro-3-((1-(2-cyano-7-methyl-3-(4-methyl-4-(trifluoromethyl)piperidin-1-yl)quinoxalin-5-yl)ethyl)amino)picolinic acid] | 0.078 | 7.68 | –
15 | Cc1cc([C@@H](C)Nc2ccccc2C(=O)O)c2nc(N3CCC(F)(F)C3)c(C#N)nc2c1 [Example 71, (R)-2-((1-(2-cyano-3-(3,3-difluoropyrrolidin-1-yl)-7-methylquinoxalin-5-yl)ethyl)amino)benzoic acid] | 0.276 | > 10 | –
16 | Cc1cc([C@@H](C)Nc2ccc(Cl)nc2C(=O)O)c2nc(NCC3(C)CC3(F)F)c(C#N)nc2c1 (stereo partly drawn) [Example 74, 6-chloro-3-(((1R)-1-(2-cyano-3-(((2,2-difluoro-1-methylcyclopropyl)methyl)amino)-7-methylquinoxalin-5-yl)ethyl)amino)picolinic acid] | 0.095 | > 10 | –
17 | Cc1cc([C@@H](C)Nc2ccc(Cl)nc2C(=O)O)c2nc(N3C[C@@H]4C[C@H]3CO4)c(C#N)nc2c1 [Example 173, 3-(((R)-1-(3-((1S,4S)-2-oxa-5-azabicyclo[2.2.1]heptan-5-yl)-2-cyano-7-methylquinoxalin-5-yl)ethyl)amino)-6-chloropicolinic acid] | 0.0268 | – | 0.0003
18 | Cc1cc([C@@H](C)Nc2ccc(Cl)nc2C(=O)O)c2nc(N3C[C@H]4C[C@@H]3CO4)c(C#N)nc2c1 [Example 174, 3-(((R)-1-(3-((1R,4R)-2-oxa-5-azabicyclo[2.2.1]heptan-5-yl)-2-cyano-7-methylquinoxalin-5-yl)ethyl)amino)-6-chloropicolinic acid] | 0.0366 | – | 0.0044
19 | Cc1cc([C@@H](C)Nc2ccc(Cl)nc2C(=O)O)c2nc(N3CC[C@H](F)C3)c(C#N)nc2c1 [Example 176, 6-chloro-3-(((R)-1-(2-cyano-3-((S)-3-fluoropyrrolidin-1-yl)-7-methylquinoxalin-5-yl)ethyl)amino)picolinic acid] | 0.0345 | – | 0.0017
20 | Cc1cc([C@@H](C)Nc2ccc(Cl)nc2C(=O)O)c2nc(N3CC[C@@H](F)C3)c(C#N)nc2c1 [Example 177, 6-chloro-3-(((R)-1-(2-cyano-3-((R)-3-fluoropyrrolidin-1-yl)-7-methylquinoxalin-5-yl)ethyl)amino)picolinic acid] | 0.0194 | – | 0.0005
21 | Cc1cc([C@@H](C)Nc2ccc(Cl)nc2C(=O)O)c2nc(N3C[C@H](F)[C@@H](F)C3)c(C#N)nc2c1 [Example 178, 6-chloro-3-(((R)-1-(2-cyano-3-((3S,4S)-3,4-difluoropyrrolidin-1-yl)-7-methylquinoxalin-5-yl)ethyl)amino)picolinic acid] | 0.0244 | – | 0.0005
22 | Cc1cc([C@@H](C)Nc2ccc(Cl)nc2C(=O)O)c2nc(N3CCN(c4ccc(C(F)(F)F)cn4)CC3)c(C#N)nc2c1 [Example 179, (R)-6-chloro-3-((1-(2-cyano-7-methyl-3-(4-(5-(trifluoromethyl)pyridin-2-yl)piperazin-1-yl)quinoxalin-5-yl)ethyl)amino)picolinic acid] | 0.0773 | – | 0.0039
23 | Cc1cc([C@@H](C)Nc2ccc(Cl)nc2C(=O)O)c2nc(N3CCO[C@@H](C)C3)c(C#N)nc2c1 [Example 260, 6-chloro-3-(((R)-1-(2-cyano-7-methyl-3-((S)-2-methylmorpholino)quinoxalin-5-yl)ethyl)amino)picolinic acid] | 0.0738 | – | 0.0019
